Patent US5506239A, “Carbostyril derivative and platelets aggregation inhibitory agent” (Otsuka Pharmaceutical Co., Ltd., priority 1991, dated 1996)

What was measured:
[1] = system: platelets; assay: Platelets aggregation inhibitory activity (method of Born et al.), collagen-induced, human PRP (Pharmacological Test I); assay type: cell-based, man; details: Homo sapiens, Platelet, 20 μg/ml collagen, 37° C., read-out: IC50 Collagen (50% platelets aggregation inhibition)
Description: (§1) The platelets aggregation inhibitory activity of each test compound was measured by the method of Born et al. [J. Physiol., London, 162, 67 (1962)], using Platelets Aggregation Tracer manufactured by Nikoh Bioscience Co., Ltd.
(§2) 9 volumes of a blood collected from person was mixed with 1 volume of a 3.8% aqueous sodium citrate solution. Part of the mixture was subjected to centrifugation at 1,100 rpm for 10 minutes to obtain a platelet rich plasma (PRP). The remainder of the mixture was also subjected to centrifugation at 3,000 rpm for 10 minutes to obtain a platelet poor plasma (PPP).
(§3) The number of platelets in the PRP was measured using Coulter Counter manufactured by Coulter Electronics Inc. Then, the PRP was diluted with the PPP so that the number of platelets in the dilution became 300,000, whereby a PRP solution was prepared.
(§4) 200 μl of this PRP solution and 2 ml of a solution containing a test compound at a given concentration were placed in an aggregation measurement cell and heated at 37° C. for 1 minute. Thereto was added 20 μl of adenosine diphosphate (ADP manufactured by Sigma Co.) or a collagen suspension (Collagen Reagent manufactured by Horm, Hormon-Chemie, Gmbh) to induce aggregation of platelets. The resulting mixture in the cell was measured for change of transmittance, after which a platelets aggregation curve was prepared. Incidentaly, the concentration of ADP or collagen was selected so that the final Concentration became 7.5 μM or 20 μg/ml.
(§5) Using the platelets aggregation curve, there was calculated a maximum aggregation rate (MAR) of platelets using the followoing formula: […]
(§6) wherein a represents a transmittance of the PRP obtained in the same manner; c represents a transmittance of the PPP obtained in the same manner; and b represents a transmittance at the maximum change, of the PRP solution containng the test compound and the aggregation inducer.
(§7) A MAR was also calculated as above, for the control containing no test compound.
(§8) Using the above two MARs, there were calculated platelets aggregation inhibitions (%) of each test compound at various concentrations using the following formula.
(§9) Inhibition=[1-(MAR of PRP solution containing test compound)/(MAR of PRP
(§10) solution containing no test compound)]×100
(§11) Using the above obtained platelets aggregation inhibitions (%) of each test compound at various concentrations, there was calculated a concentration (IC50) of each test compound for 50% platelets aggregation inhibition.

[2] = system: platelets; assay: Platelets aggregation inhibitory activity (method of Born et al.), ADP-induced, human PRP (Pharmacological Test I); assay type: cell-based, man; details: Homo sapiens, Platelet, 7.5 μM ADP, 37° C., read-out: IC50 ADP (50% platelets aggregation inhibition)
Description: as §1, §2, §3, §4, §5, §6, §7, §8, §9, §10, §11

[3] = molecular target: T1, cyclic AMP phosphodiesterase (Homo sapiens, UniProt Q14432); assay: Cyclic AMP phosphodiesterase inhibitory activity, enzyme from human platelets (Pharmacological Test IV); assay type: biochemical, man; details: 0.4 μM cyclic AMP substrate, 30° C., 20 minutes, human platelet enzyme; read-out: IC50 (50% phosphodiesterase inhibition concentration)
T1 construct: the resulting supernatant liquid was used as a crude enzyme solution; from tissue; host or cells: human platelets (from platelet-rich plasma)

[4] = system: mongrel dogs; details: dog, in vivo, 300 mg/kg
Description: The heart rate-increasing activity and blood pressure hypotensive activity of each test compound were measured by the following method, using mongrel dogs each weighing 10-20 kg. That is, said dogs were anesthesized by intravenous injection of pentobarbital sodium, then fixed at the back, and tested under artificial respiration. The blood pressures of the dogs were measured by a blood pressure measuring transducer (P23×L manufactured by Gould Statham Instruments, Inc.) via cannula inserted into the femoral artery. The heart rates of the dogs were measured using the pulse wave of the blood pressure of each dog, via a tachometer. The signals of these testng apparatuses were recorded on a thermal pen-type recorder (Recti-Horize 8K manufactured by Nippon Denki-San-ei Sha).
Some of the compounds obtained in the above Examples were used as test compounds. […] Then, the heart rate of each dog was measured according to the above method and a maximum change in heart rate was calculated.

[5] = system: platelets; assay: Inhibition of collagen-induced platelets adhesion, washed platelets (Pharmacological Test III); assay type: cell-based, man; details: Platelet; dose 3 μM; 50 μg/ml collagen; human washed platelets; read-out: Inhibition (%) of collagen-induced platelets adherence
Description: A blood was collected from a healthy person with normal platelets function by addition of 0.1% disodium ethylenediaminetetraacetate (EDTA.4Na) and immediately subjected to separation of a platelet rich plasma (PRP). The PRP was washed twice with a Tyrode's buffer solution (50mM TRIS, 0.1% EDTA, Ca (-), Mg (-), 0.14% BSA added, pH=7.4), and suspended in the buffer solution so that the number of platelets in the resulting suspension became 300, 000/ml, to obtain a platelets suspension (EDTA-WP). 4 mg of Type I manufactured by Sigma Co., derived from a bovine skin was dissolved in 0.25 ml of acetic acid (83.5 mM); 8 ml of distilled water was added thereto; an ultrasonic wave was applied to the mixture at 4° C. for 2 minutes; 5 ml of the supernatant liquid was separated as a collagen solution. Each test compound was dissolved in dimethylformamide (DMF) so as to give a concentration of at least […] when possible, to prepare a test compound solution. The change in turbidity of platelets suspension was recorded as a change in transmitted light emitted from a glass cell containing the suspension, using a platelets aggregation tracer manufactured by Nikoh Bioscience K.K., generally used in the test of platelets aggregation function, whereby the adherence of platelets was measured. Incidentally, in recoridng the change in transmitted light, the sensitivity of the recorder was 5 times as high as that used generally. 200 μl of the EDTA-WP was placed in a glass cell exclusively used for the above platelets aggregation tester. Further, 1 μl of the test compound solution was added. The mixture was incubated at room temperature for 5 minutes. Then, the cell was set in the platelets aggregation tracer and was allowed to stand for 1 minute until the temperature became 37° C. Thereafter, about 20 μl (50 μg/ml) of the collagen solution was added, and the adherence of platelets were measured.
The inhibitions (%) of collagen-induced platelets adhesion by each test compound at various concentrations were calculated using the following formula.
Inhibition (%)=[1-(platelets adherence when test compound added)/
(platelets adherence when no test compound added)]×100

T1 sequence (Q14432 whole entry): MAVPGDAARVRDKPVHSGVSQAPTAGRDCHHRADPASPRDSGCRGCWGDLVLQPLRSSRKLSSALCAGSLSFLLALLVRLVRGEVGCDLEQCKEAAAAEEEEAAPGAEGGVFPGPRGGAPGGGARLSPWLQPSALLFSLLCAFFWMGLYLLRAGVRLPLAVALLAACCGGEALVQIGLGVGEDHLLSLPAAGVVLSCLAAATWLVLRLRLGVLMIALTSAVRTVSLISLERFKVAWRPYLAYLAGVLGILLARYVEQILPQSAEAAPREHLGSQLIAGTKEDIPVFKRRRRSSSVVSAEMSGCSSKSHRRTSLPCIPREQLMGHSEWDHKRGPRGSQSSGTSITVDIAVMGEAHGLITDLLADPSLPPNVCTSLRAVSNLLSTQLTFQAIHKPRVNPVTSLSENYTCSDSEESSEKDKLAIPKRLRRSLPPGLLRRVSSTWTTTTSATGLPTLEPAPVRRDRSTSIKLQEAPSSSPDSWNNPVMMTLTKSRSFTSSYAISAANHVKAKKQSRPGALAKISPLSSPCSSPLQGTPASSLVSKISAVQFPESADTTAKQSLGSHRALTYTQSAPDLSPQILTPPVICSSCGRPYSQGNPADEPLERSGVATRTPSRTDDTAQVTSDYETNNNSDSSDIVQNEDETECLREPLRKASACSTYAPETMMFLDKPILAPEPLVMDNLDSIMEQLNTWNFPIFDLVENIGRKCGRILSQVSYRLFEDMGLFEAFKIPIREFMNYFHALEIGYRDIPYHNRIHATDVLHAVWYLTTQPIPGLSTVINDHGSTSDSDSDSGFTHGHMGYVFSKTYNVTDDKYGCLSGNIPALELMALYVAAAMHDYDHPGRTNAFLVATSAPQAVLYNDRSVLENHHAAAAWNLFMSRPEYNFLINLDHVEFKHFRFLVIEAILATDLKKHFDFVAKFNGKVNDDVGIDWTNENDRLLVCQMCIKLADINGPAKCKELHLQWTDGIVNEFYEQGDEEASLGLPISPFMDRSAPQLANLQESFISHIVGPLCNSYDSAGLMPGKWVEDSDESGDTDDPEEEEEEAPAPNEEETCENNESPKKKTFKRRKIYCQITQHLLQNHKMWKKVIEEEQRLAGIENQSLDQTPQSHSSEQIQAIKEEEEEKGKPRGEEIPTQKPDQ

O=c1ccc2cc(OCCCS(=O)(=O)N(CCN3CCC(O)CC3)C3CCCCCCC3)ccc2[nH]1 [Example 85]
IC50 [1]: 570 nM | IC50 [2]: 2100 nM | IC50 [3]: < 100 nM | Maximum change in heart rate [4]: 13 beats/minute | inhibition at 3 µM [5]: 50%
